# Reference: ChEMBL document CHEMBL1201862, “PubChem BioAssay data set” (2004)
#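 Exposure lasted 48 hours, with cells grown in 96-well plates and compounds tested at five concentrations. The concentration for 50% growth inhibition is given as GI50.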 Calls of active or inactive are those of the source. No stated cut-off is given here; in the data, active = GI50 up to about 1.1 µM and inactive = higher.
# Experiments:
# Assay in all cases: inhibition of tumour cell growth, NCI panel, 48 h
# [1] = system: A549
# [2] = system: KM-20L2
# [3] = system: SF-268
# [4] = system: RXF 393
# [5] = system: OVCAR-3
# [6] = system: HCC 2998
# [7] = system: SK-MEL-2
# [8] = system: HOP-18
# [9] = system: SR
# [10] = system: SK-MEL-5
# [11] = system: OVCAR-8
# [12] = system: MOLT-4
# [13] = system: HL-60
# [14] = system: LOX IMVI
# [15] = system: EKVX
# [16] = system: SNB-78
# [17] = system: KM12
# [18] = system: SF-295
# [19] = system: SK-MEL-28
# [20] = system: OVCAR-5
# [21] = system: UACC-257
# [22] = system: DMS-273
# [23] = system: 786-0
# [24] = system: XF498
# [25] = system: U-251
# [26] = system: CCRF-CEM
# [27] = system: A498
# [28] = system: M19-MEL
# [29] = system: HCT-15
# [30] = system: M14
# [31] = system: IGROV-1
# [32] = system: NCI-H23
# [33] = system: HOP-92
# [34] = system: Malme-3M
# [35] = system: SF-539
# [36] = system: UO-31
# [37] = system: SW-620
# [38] = system: NCI-H226
# [39] = system: HCT-116
# [40] = system: COLO 205
# [41] = system: NCI-H460
# [42] = system: SN12C
# [43] = system: SK-OV-3
# [44] = system: K562
# [45] = system: SNB-19
# [46] = system: RPMI-8226
# [47] = system: CAKI-1
# [48] = system: TK-10
# [49] = system: SNB-75
# [50] = system: LXFL 529
# [51] = system: NCI-H522
# [52] = system: HT-29
# [53] = system: OVCAR-4
# [54] = system: DLD-1
# [55] = system: UACC-62
# [56] = system: DMS-114
# [57] = system: HOP-62
# [58] = system: ACHN
compound,measurement,setting,value
O=C1Cc2ccccc2CCc2ccsc21,GI50,[1],> 100 µM (inactive)
same,GI50,[2],> 100 µM (inactive)
same,GI50,[3],> 100 µM (inactive)
same,GI50,[4],> 100 µM (inactive)
same,GI50,[5],> 100 µM (inactive)
same,GI50,[6],> 100 µM (inactive)
same,GI50,[7],> 100 µM (inactive)
same,GI50,[8],70.8 µM (inactive)
same,GI50,[9],> 100 µM (inactive)
same,GI50,[10],> 100 µM (inactive)
same,GI50,[11],> 100 µM (inactive)
same,GI50,[12],> 100 µM (inactive)
same,GI50,[13],92.3 µM (inactive)
same,GI50,[14],> 100 µM (inactive)
same,GI50,[15],> 100 µM (inactive)
same,GI50,[16],> 100 µM (inactive)
same,GI50,[17],> 100 µM (inactive)
same,GI50,[18],> 100 µM (inactive)
same,GI50,[19],> 100 µM (inactive)
same,GI50,[20],31.3 µM (inactive)
same,GI50,[21],> 100 µM (inactive)
same,GI50,[22],> 100 µM (inactive)
same,GI50,[23],> 100 µM (inactive)
same,GI50,[24],> 100 µM (inactive)
same,GI50,[25],> 100 µM (inactive)
same,GI50,[26],> 100 µM (inactive)
same,GI50,[27],> 100 µM (inactive)
same,GI50,[28],> 100 µM (inactive)
same,GI50,[29],> 100 µM
same,GI50,[30],> 100 µM (inactive)
same,GI50,[31],> 100 µM (inactive)
same,GI50,[32],> 100 µM (inactive)
same,GI50,[33],40 µM (inactive)
same,GI50,[34],> 100 µM (inactive)
same,GI50,[35],> 100 µM (inactive)
same,GI50,[36],> 100 µM (inactive)
same,GI50,[37],> 100 µM (inactive)
same,GI50,[38],> 100 µM (inactive)
same,GI50,[39],> 100 µM (inactive)
same,GI50,[40],> 100 µM (inactive)
same,GI50,[41],> 100 µM (inactive)
same,GI50,[42],> 100 µM (inactive)
same,GI50,[43],> 100 µM (inactive)
same,GI50,[44],> 100 µM (inactive)
same,GI50,[45],> 100 µM (inactive)
same,GI50,[46],> 100 µM (inactive)
same,GI50,[47],> 100 µM (inactive)
same,GI50,[48],> 100 µM (inactive)
same,GI50,[49],61.2 µM (inactive)
same,GI50,[50],> 100 µM (inactive)
same,GI50,[51],> 100 µM (inactive)
same,GI50,[52],> 100 µM (inactive)
same,GI50,[53],> 100 µM (inactive)
same,GI50,[54],> 100 µM (inactive)
CCN(CC)CCCCC1CCN(CC(=O)N2CC(C)C(=O)Nc3ccccc32)CC1 (stereo not given),GI50,[1],> 100 µM (inactive)
same,GI50,[55],> 100 µM (inactive)
same,GI50,[2],> 100 µM (inactive)
same,GI50,[3],> 100 µM (inactive)
same,GI50,[56],> 100 µM (inactive)
same,GI50,[5],> 100 µM (inactive)
same,GI50,[6],> 100 µM (inactive)
same,GI50,[8],> 100 µM (inactive)
same,GI50,[9],> 100 µM (inactive)
same,GI50,[10],> 100 µM (inactive)
same,GI50,[57],> 100 µM (inactive)
same,GI50,[12],> 100 µM (inactive)
same,GI50,[13],> 100 µM (inactive)
same,GI50,[14],> 100 µM (inactive)
same,GI50,[18],> 100 µM (inactive)
same,GI50,[19],> 100 µM (inactive)
same,GI50,[20],> 100 µM (inactive)
same,GI50,[21],> 100 µM (inactive)
same,GI50,[22],> 100 µM (inactive)
same,GI50,[23],> 100 µM (inactive)
same,GI50,[25],> 100 µM (inactive)
same,GI50,[26],> 100 µM (inactive)
same,GI50,[27],> 100 µM (inactive)
same,GI50,[28],> 100 µM (inactive)
same,GI50,[29],> 100 µM
same,GI50,[30],> 100 µM (inactive)
same,GI50,[31],> 100 µM (inactive)
same,GI50,[32],> 100 µM (inactive)
same,GI50,[33],> 100 µM (inactive)
same,GI50,[34],> 100 µM (inactive)
same,GI50,[36],> 100 µM (inactive)
same,GI50,[37],> 100 µM (inactive)
same,GI50,[38],> 100 µM (inactive)
same,GI50,[58],> 100 µM (inactive)
same,GI50,[39],> 100 µM (inactive)
same,GI50,[40],> 100 µM (inactive)
same,GI50,[41],> 100 µM (inactive)
same,GI50,[42],> 100 µM (inactive)
same,GI50,[43],> 100 µM (inactive)
same,GI50,[44],> 100 µM (inactive)
same,GI50,[45],> 100 µM (inactive)
same,GI50,[46],> 100 µM (inactive)
same,GI50,[47],> 100 µM (inactive)
same,GI50,[50],> 100 µM (inactive)
same,GI50,[52],> 100 µM (inactive)
same,GI50,[53],> 100 µM (inactive)
same,GI50,[54],> 100 µM (inactive)
CC(=O)Nc1ccc2c(c1)C(=O)c1ccccc1-2,GI50,[1],> 100 µM (inactive)
same,GI50,[55],> 100 µM (inactive)
same,GI50,[2],> 100 µM (inactive)
same,GI50,[3],> 100 µM (inactive)
same,GI50,[56],> 100 µM (inactive)
same,GI50,[4],> 100 µM (inactive)
same,GI50,[5],> 100 µM (inactive)
same,GI50,[6],> 100 µM (inactive)
same,GI50,[9],> 100 µM (inactive)
same,GI50,[57],> 100 µM (inactive)
same,GI50,[11],> 100 µM (inactive)
same,GI50,[12],> 100 µM (inactive)
same,GI50,[13],> 100 µM (inactive)
same,GI50,[14],> 100 µM (inactive)
same,GI50,[15],> 100 µM (inactive)
same,GI50,[16],> 100 µM (inactive)
same,GI50,[17],> 100 µM (inactive)
same,GI50,[18],> 100 µM (inactive)
same,GI50,[19],> 100 µM (inactive)
same,GI50,[21],> 100 µM (inactive)
same,GI50,[22],> 100 µM (inactive)
same,GI50,[23],> 100 µM (inactive)
same,GI50,[25],> 100 µM (inactive)
same,GI50,[26],> 100 µM (inactive)
same,GI50,[28],> 100 µM (inactive)
same,GI50,[29],> 100 µM
same,GI50,[30],> 100 µM (inactive)
same,GI50,[31],> 100 µM (inactive)
same,GI50,[32],> 100 µM (inactive)
same,GI50,[34],> 100 µM (inactive)
same,GI50,[35],> 100 µM (inactive)
same,GI50,[36],> 100 µM (inactive)
same,GI50,[37],> 100 µM (inactive)
same,GI50,[38],> 100 µM (inactive)
same,GI50,[58],> 100 µM (inactive)
same,GI50,[39],> 100 µM (inactive)
same,GI50,[40],> 100 µM (inactive)
same,GI50,[41],> 100 µM (inactive)
same,GI50,[42],> 100 µM (inactive)
same,GI50,[43],> 100 µM (inactive)
same,GI50,[44],> 100 µM (inactive)
same,GI50,[45],> 100 µM (inactive)
same,GI50,[46],> 100 µM (inactive)
same,GI50,[48],> 100 µM (inactive)
same,GI50,[49],> 100 µM (inactive)
same,GI50,[50],> 100 µM (inactive)
same,GI50,[51],> 100 µM (inactive)
same,GI50,[52],> 100 µM (inactive)
same,GI50,[54],> 100 µM (inactive)
